Holding throughout (assay): KINOMEscan kinase binding assay (Eurofins/DiscoveRx), % Ctrl
Common to all, as to details: 1 μM

Test [1] addresses T1, kinases (Homo sapiens, UniProt P00533, DEL746-750).
T1 construct: purchased Eurofins/DiscoveRx; host or cells: E. coli BL21-derived host (T7 phage display) for most kinases; HEK-293 for the rest
The method, boiled down:
(§1)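 Competition binding: DNA- or phage-tagged kinases (T7 phage in E. coli BL21, or HEK-293-expressed) with immobilized biotinylated ligand beads and test compound, 1 h at room temperature. Bead-bound kinase eluted and quantified by qPCR; % Ctrl = (compound − positive control)/(negative control − positive control) ×100 at a single compound concentration.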

The target of test [2] is T2, kinases (Homo sapiens, UniProt P00533, G719S).
T2 construct: purchased Eurofins/DiscoveRx; host or cells: E. coli BL21-derived host (T7 phage display) for most kinases; HEK-293 for the rest
The method, boiled down:
as §1

The test system of test [3] is kinases. In outline: as §1
Test [4] has as its target T3, kinases (Homo sapiens, UniProt P00519, Q252H).
T3 construct: purchased Eurofins/DiscoveRx; host or cells: E. coli BL21-derived host (T7 phage display) for most kinases; HEK-293 for the rest
In outline: as §1

Test [5] addresses T4, kinases (Homo sapiens, UniProt P35916).
T4 construct: purchased Eurofins/DiscoveRx; host or cells: E. coli BL21-derived host (T7 phage display) for most kinases; HEK-293 for the rest
The method, boiled down: as §1

For test [6], the target named is T5, kinases (Homo sapiens, UniProt P17948).
T5 construct: purchased Eurofins/DiscoveRx; host or cells: E. coli BL21-derived host (T7 phage display) for most kinases; HEK-293 for the rest
The method, boiled down:
as §1

The target in test [7] is T6, kinases (Homo sapiens, UniProt P00533, L858R).
T6 construct: purchased Eurofins/DiscoveRx; host or cells: E. coli BL21-derived host (T7 phage display) for most kinases; HEK-293 for the rest
The method, boiled down:
as §1

T4 sequence (P35916 25-1363): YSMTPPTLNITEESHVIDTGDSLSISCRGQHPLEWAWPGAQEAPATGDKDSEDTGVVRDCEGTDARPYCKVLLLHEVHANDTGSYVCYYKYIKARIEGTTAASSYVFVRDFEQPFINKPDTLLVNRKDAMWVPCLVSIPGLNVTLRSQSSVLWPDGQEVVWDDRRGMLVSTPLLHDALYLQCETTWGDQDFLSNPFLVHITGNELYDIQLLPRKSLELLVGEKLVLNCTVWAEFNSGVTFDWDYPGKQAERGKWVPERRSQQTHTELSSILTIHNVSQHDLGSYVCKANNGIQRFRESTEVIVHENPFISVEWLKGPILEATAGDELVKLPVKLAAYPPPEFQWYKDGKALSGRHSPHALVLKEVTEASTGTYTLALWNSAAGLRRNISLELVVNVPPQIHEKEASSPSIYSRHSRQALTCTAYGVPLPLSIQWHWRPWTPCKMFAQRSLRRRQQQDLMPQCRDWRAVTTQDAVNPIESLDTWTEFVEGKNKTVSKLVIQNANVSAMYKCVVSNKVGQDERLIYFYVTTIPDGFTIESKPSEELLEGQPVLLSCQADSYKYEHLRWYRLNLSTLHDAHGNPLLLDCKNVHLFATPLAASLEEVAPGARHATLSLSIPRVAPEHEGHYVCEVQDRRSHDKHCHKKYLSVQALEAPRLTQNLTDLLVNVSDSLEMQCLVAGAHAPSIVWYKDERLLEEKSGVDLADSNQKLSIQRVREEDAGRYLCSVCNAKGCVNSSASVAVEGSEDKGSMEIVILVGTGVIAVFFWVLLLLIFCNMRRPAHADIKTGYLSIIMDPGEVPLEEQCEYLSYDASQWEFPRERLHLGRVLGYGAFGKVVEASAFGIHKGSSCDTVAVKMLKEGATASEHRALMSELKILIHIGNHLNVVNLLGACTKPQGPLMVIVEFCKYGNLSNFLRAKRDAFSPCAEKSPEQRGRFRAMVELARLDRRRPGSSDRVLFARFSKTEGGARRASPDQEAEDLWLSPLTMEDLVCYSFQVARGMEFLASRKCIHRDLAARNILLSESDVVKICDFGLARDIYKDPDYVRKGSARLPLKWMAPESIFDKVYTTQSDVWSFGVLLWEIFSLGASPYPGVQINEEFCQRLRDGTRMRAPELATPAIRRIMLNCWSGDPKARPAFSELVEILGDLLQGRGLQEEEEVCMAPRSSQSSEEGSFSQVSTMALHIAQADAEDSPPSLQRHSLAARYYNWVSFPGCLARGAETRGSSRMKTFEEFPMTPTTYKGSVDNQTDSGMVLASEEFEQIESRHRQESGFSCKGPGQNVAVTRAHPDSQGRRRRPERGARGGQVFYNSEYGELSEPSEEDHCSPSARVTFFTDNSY
T5 sequence (P17948 27-1338): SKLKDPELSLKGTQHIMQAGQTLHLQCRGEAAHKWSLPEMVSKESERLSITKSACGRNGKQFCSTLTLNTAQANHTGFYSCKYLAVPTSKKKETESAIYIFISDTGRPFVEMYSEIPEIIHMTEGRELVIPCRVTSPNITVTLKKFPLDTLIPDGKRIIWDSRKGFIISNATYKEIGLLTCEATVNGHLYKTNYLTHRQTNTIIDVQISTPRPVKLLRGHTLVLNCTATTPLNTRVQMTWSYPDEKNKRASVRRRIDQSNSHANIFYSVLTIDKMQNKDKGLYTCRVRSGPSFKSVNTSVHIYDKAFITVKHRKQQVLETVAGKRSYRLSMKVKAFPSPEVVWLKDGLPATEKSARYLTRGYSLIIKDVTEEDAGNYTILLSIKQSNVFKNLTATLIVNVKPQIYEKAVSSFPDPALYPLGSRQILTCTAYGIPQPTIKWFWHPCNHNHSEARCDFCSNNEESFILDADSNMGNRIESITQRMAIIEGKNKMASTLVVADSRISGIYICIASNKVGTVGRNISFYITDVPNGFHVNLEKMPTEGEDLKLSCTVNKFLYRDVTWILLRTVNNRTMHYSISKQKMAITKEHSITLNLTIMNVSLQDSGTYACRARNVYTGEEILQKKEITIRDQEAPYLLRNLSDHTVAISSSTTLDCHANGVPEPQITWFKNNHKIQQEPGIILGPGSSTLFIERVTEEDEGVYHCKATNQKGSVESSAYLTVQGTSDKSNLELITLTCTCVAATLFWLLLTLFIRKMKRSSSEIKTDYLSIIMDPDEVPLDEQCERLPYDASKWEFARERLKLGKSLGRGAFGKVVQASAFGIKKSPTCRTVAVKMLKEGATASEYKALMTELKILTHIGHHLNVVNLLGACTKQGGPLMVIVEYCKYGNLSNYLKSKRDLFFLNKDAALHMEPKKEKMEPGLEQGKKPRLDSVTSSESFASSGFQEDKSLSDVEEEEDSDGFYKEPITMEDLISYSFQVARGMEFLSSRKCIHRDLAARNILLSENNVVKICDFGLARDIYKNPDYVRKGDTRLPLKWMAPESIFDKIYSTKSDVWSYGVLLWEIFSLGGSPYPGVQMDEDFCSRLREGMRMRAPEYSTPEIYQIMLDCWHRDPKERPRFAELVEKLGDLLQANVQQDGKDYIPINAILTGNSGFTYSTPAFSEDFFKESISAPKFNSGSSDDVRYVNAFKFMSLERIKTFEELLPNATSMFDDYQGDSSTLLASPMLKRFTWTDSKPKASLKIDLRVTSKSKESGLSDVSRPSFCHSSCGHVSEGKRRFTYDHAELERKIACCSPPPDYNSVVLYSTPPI

As for `Cc1cc2c([nH]1)/C=C1\C(=O)Nc3cc(Cl)c(cc31)OCCO[C@@H](C(=O)NC1CCNCC1)CN(C)C2=O` [Ex. 134, [7R,16a(17)Z]-19-chloro-2,5-dimethyl-4,16-dioxo-N-(piperidin-4-yl)-4,5,6,7,9,10,15,16-octahydro-1H-12,14-(ethaneidylidene)dipyrrolo[3,2-i:3′,4′-l][1,4,7]dioxazacyclopentadecine-7-carboxamide], the “% Ctrl, EGFR(E746-A750del)” value in test [1] (EGFR(E746-A750del)) is reported as 89 % Ctrl. Moreover, the “% Ctrl, EGFR(G719S)” value in test [2] (EGFR(G719S)) was 92 % Ctrl. Moreover, the “% Ctrl, EGFR(L747-E749del, A750P)” value in test [3] (EGFR(L747-E749del, A750P)) was determined as 83 % Ctrl. Moreover, the “% Ctrl, EGFR(L747-S752del, P753S)” value in test [3] (EGFR(L747-S752del, P753S)) is 87 % Ctrl. Moreover, the “% Ctrl, EGFR(L747-T751del, Sins)” value in test [3] (EGFR(L747-T751del, Sins)) is 99 % Ctrl. In test [3] (FLT3(ITD)), the “% Ctrl, FLT3(ITD)” value came to 35 % Ctrl. The “% Ctrl, FLT3(ITD, D835V)” value in test [3] (FLT3(ITD, D835V)) was 3.2 % Ctrl. Further, the “% Ctrl, FLT3(ITD, F691L)” value in test [3] (FLT3(ITD, F691L)) was determined as 6.1 % Ctrl. The “% Ctrl, ABL1(Q252H)-nonphosphorylated” value in test [4] (ABL1(Q252H)-nonphosphorylated) is listed as 32 % Ctrl. In addition, the “% Ctrl, ABL1(Q252H)-phosphorylated” value in test [4] (ABL1(Q252H)-phosphorylated) came out at 18 % Ctrl. The “% Ctrl, FLT4” value in test [5] (FLT4) worked out at 90 % Ctrl. Moreover, the “% Ctrl, FLT1” value in test [6] (FLT1) turned out to be 97 % Ctrl. Further, the “% Ctrl, EGFR(L858R)” value in test [7] (EGFR(L858R)) was 89 % Ctrl.

Take `Cc1cc2c([nH]1)/C=C1\C(=O)Nc3ccc(cc31)-c1c(noc1C(C)C)COCCN(C)C2=O` [Ex. 161, [3a(4)Z]-9-methyl-16-(propan-2-yl)-10,11-dihydro-2H,13H-1,17-(ethanediylidene)[1,2]oxazolo[4,3-m]dipyrrolo[3,2-f:3′,4′-i][1,4]oxazacyclopentadecine-3,8(5H,9H)-dione]: the “% Ctrl, EGFR(E746-A750del)” value in test [1] (target EGFR(E746-A750del)) was found to be 87 % Ctrl. For the same compound, in test [2] (target EGFR(G719S)), the “% Ctrl, EGFR(G719S)” value was determined as 58 % Ctrl. Besides, the “% Ctrl, EGFR(L747-E749del, A750P)” value in test [3] (target EGFR(L747-E749del, A750P)) is recorded as 100 % Ctrl. In addition, in test [3] (target EGFR(L747-S752del, P753S)), the “% Ctrl, EGFR(L747-S752del, P753S)” value stood at 80 % Ctrl. Moreover, the “% Ctrl, EGFR(L747-T751del, Sins)” value in test [3] (target EGFR(L747-T751del, Sins)) stood at 93 % Ctrl. Also, in test [3] (target FLT3(ITD)), the “% Ctrl, FLT3(ITD)” value is 85 % Ctrl. Also, in test [3] (target FLT3(ITD, D835V)), the “% Ctrl, FLT3(ITD, D835V)” value is recorded as 83 % Ctrl. Besides, in test [3] (target FLT3(ITD, F691L)), the “% Ctrl, FLT3(ITD, F691L)” value was found to be 82 % Ctrl. The “% Ctrl, ABL1(Q252H)-nonphosphorylated” value in test [4] (target ABL1(Q252H)-nonphosphorylated) worked out at 100 % Ctrl. Further, the “% Ctrl, ABL1(Q252H)-phosphorylated” value in test [4] (target ABL1(Q252H)-phosphorylated) came to 79 % Ctrl. Further, the “% Ctrl, FLT4” value in test [5] (target FLT4) was determined as 79 % Ctrl. Moreover, the “% Ctrl, FLT1” value in test [6] (target FLT1) worked out at 82 % Ctrl. Also, the “% Ctrl, EGFR(L858R)” value in test [7] (target EGFR(L858R)) is 100 % Ctrl.

Turning to `Cc1cc2c([nH]1)/C=C1\C(=O)Nc3ccc(cc31)-c1ccnn1CCNCCNC2=O` [Ex. 43, [19a(20)Z]-2-methyl-5,6,7,8,9,10-hexahydro-15,17-(ethanediylidene)pyrazolo[1,5-g]dipyrrolo[3,4-k:2′,3′-n][1,4,7]triazacyclohexadecine-4,19(1H,18H)-dione], the “% Ctrl, EGFR(E746-A750del)” value in test [1] (EGFR(E746-A750del)) amounted to 69 % Ctrl. Moreover, in test [2] (EGFR(G719S)), the “% Ctrl, EGFR(G719S)” value is reported as 92 % Ctrl. The “% Ctrl, EGFR(L747-E749del, A750P)” value in test [3] (EGFR(L747-E749del, A750P)) is given as 89 % Ctrl. For the same compound, in test [3] (EGFR(L747-S752del, P753S)), the “% Ctrl, EGFR(L747-S752del, P753S)” value is reported as 86 % Ctrl. Further, the “% Ctrl, EGFR(L747-T751del, Sins)” value in test [3] (EGFR(L747-T751del, Sins)) worked out at 85 % Ctrl. Moreover, the “% Ctrl, FLT3(ITD)” value in test [3] (FLT3(ITD)) is recorded as 100 % Ctrl. Further, the “% Ctrl, FLT3(ITD, D835V)” value in test [3] (FLT3(ITD, D835V)) worked out at 38 % Ctrl. Besides, the “% Ctrl, FLT3(ITD, F691L)” value in test [3] (FLT3(ITD, F691L)) turned out to be 47 % Ctrl. In addition, the “% Ctrl, ABL1(Q252H)-nonphosphorylated” value in test [4] (ABL1(Q252H)-nonphosphorylated) was 55 % Ctrl. Also, the “% Ctrl, ABL1(Q252H)-phosphorylated” value in test [4] (ABL1(Q252H)-phosphorylated) came out at 97 % Ctrl. For the same compound, in test [5] (FLT4), the “% Ctrl, FLT4” value is reported as 91 % Ctrl. Moreover, in test [6] (FLT1), the “% Ctrl, FLT1” value is 96 % Ctrl. Also, the “% Ctrl, EGFR(L858R)” value in test [7] (EGFR(L858R)) is 97 % Ctrl.

Values taken from US20230257396A1, “MACROCYCLES AND THEIR USE” (BLOSSOMHILL THERAPEUTICS, INC., priority 2020, published 2023).
